These are literature values, as cited in patent publication EP2136625B1, “USE OF A MEANS FOR THE SI[…] WEEDS, ALGAE, PHYTOPATHOGENIC BACTERIA, FUNGI, VIRUSES AND VIROIDS” (priority 2007, dated 2008).

The conditions of this data set: Methode EPA-FIFRA, Sonnenbarsch, 46 d.

For `CCCCCCCCCC[N+](C)(C)CCCCCCCCCC.[Cl-]` [DDAC, Didecyldimethylammoniumchlorid], the BCF was 81.
